# From patent US10028942B2 (priority 2013, dated 2018)
# Target: T1, DLK (Homo sapiens, UniProt Q12852)
# T1 sequence (Q12852 1-520): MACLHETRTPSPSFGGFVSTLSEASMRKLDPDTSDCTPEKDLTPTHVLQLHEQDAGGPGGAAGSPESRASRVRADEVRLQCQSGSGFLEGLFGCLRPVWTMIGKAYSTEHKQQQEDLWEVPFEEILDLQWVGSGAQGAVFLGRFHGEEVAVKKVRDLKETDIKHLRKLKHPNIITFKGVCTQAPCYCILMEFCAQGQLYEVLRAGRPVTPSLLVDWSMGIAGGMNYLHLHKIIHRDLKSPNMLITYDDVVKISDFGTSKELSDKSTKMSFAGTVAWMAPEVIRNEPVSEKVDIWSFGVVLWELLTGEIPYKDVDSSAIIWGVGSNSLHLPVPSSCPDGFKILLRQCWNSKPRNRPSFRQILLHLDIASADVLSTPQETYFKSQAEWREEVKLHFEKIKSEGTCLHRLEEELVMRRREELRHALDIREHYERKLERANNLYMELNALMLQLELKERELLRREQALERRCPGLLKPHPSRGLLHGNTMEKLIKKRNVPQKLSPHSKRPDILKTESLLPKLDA
# Settings: read-out: DLK (Ki) μM; TR-FRET; 5 nM GST-tagged DLK (catalytic domain aa 1-520), 40 nM HIS-MKK4 K131M substrate, 30 μM ATP, 60 minutes
row,Ki [µM],Compound
1,0.013,"FC1(F)CCC(n2nc(-c3cnc4[nH]cc(C(F)(F)F)c4c3)cc2C2CN(C3COC3)C2)C1 (centres unmarked) [Compound 56, 5-(1-(3,3-difluorocyclopentyl)-5-(1-(oxetan-3-yl)azetidin-3-yl)-1H-pyrazol-3-yl)-3-(trifluoromethyl)-1H-pyrrolo[2,3-b]pyridine]"
2,0.64,"CC(C)n1nc(-c2cnc3[nH]cc(F)c3c2)cc1C1CN(C2COC2)C1 [Compound 58, 3-fluoro-5-(1-isopropyl-5-(1-(oxetan-3-yl)azetidin-3-yl)-1H-pyrazol-3-yl)-1H-pyrrolo[2,3-b]pyridine]"
3,0.31,"CC(C)n1nc(-c2cnc3[nH]cc(C#N)c3c2)cc1C1CN(C2COC2)C1 [Compound 59, 5-(1-isopropyl-5-(1-(oxetan-3-yl)aze-tidin-3-yl)-1H-pyrazol-3-yl)-1H-pyrro-lo[2,3-b]pyridine-3-carbonitrile]"
4,0.027,"CC(C)n1nc(-c2cnc(N)c(C(F)(F)F)c2)cc1C1CN(C2COC2)C1 [Compound 60, 5-(1-isopropyl-5-(1-(oxetan-3-yl)azetidin-3-yl)-1H-pyrazol-3-yl)-3-(trifluoromethyl)pyridin-2-amine]"
5,0.034,"Cc1c[nH]c2ncc(-c3cc(C4CCN(C5COC5)C4)n(C)n3)cc12 (centres unmarked) [Compound 63, 3-methyl-5-(1-methyl-5-(1-(oxetan-3-yl)pyrrolidin-3-yl)-1H-pyrazol-3-yl)-1H-pyrrolo[2,3-b]pyridine]"
6,0.0045,"Cc1c[nH]c2ncc(-c3cc(C4CCN(C5COC5)C4)n(C(C)C)n3)cc12 (centres unmarked) [Compound 64, 5-(1-isopropyl-5-(1-(oxetan-3-yl)pyr-rolidin-3-yl)-1H-pyrazol-3-yl)-3-meth-yl-1H-pyrrolo[2,3-b]pyridine]"
7,0.11,"CC(C)n1nc(-c2cnc3[nH]cc(F)c3c2)cc1C1CCN(C2COC2)C1 (centres unmarked) [Compound 66, 3-fluoro-5-(1-isopropyl-5-(1-(oxetan-3-yl)pyrrolidin-3-yl)-1H-pyrazol-3-yl)-1H-pyrrolo[2,3-b]pyridine]"
8,0.03,"CC(C)n1nc(-c2cnc(N)c(C(F)(F)F)c2)cc1C1CCN(C2COC2)C1 (centres unmarked) [Compound 67, 5-(1-isopropyl-5-(1-(oxetan-3-yl)pyr-rolidin-3-yl)-1H-pyrazol-3-yl)-3-(tri-fluoromethyl)pyridin-2-amine]"
9,0.0037,"Cc1c[nH]c2ncc(-c3cc(C4CCN(C5COC5)CC4)n(C(C)C)n3)cc12 [Compound 69, 5-(1-isopropyl-5-(1-(oxetan-3-yl)pipe-ridin-4-yl)-1H-pyrazol-3-yl)-3-meth-yl-1H-pyrrolo[2,3-b]pyridine]"
10,0.0023,"CC(C)n1nc(-c2cnc3[nH]cc(C(F)(F)F)c3c2)cc1C1CCN(C2COC2)CC1 [Compound 70, 5-(1-isopropyl-5-(1-(oxetan-3-yl)pipe-ridin-4-yl)-1H-pyrazol-3-yl)-3-(tri-fluoromethyl)-1H-pyrrolo[2,3-b]pyri-dine]"
11,0.27,"Nc1ncc(-c2cc(C3CCN(C4COC4)CC3)n(C3CCCC3)n2)cc1Cl [Compound 71, 3-chloro-5-(1-cyclopentyl-5-(1-(oxetan-3-yl)piperidin-4-yl)-1H-pyrazol-3-yl)pyridin-2-amine]"
12,0.015,"CC(C)n1nc(-c2cnc3[nH]cc(Cl)c3c2)cc1C1CCN(C2COC2)CC1 [Compound 72, 3-chloro-5-(1-isopropyl-5-(1-(oxetan-3-yl)piperidin-4-yl)-1H-pyrazol-3-yl)-1H-pyrrolo[2,3-b]pyridine]"
13,0.096,"CC(C)n1nc(-c2cnc3[nH]cc(F)c3c2)cc1C1CCN(C2COC2)CC1 [Compound 75, 3-fluoro-5-(1-isopropyl-5-(1-(oxetan-3-yl)piperidin-4-yl)-1H-pyrazol-3-yl)-1H-pyrrolo[2,3-b]pyridine]"
14,0.15,"CC(C)n1nc(-c2cnc(N)c(C(F)(F)F)c2)cc1C1CCN(C2COC2)CC1 [Compound 76, 5-(1-isopropyl-5-(1-(oxetan-3-yl)piperidin-4-yl)-1H-pyrazol-3-yl)-3-(trifluoromethyl)pyridin-2-amine]"
